In the data set the test system is rodent carcinogenicity bioassays, tumor incidence. As to the kind of experiment: CCRIS carcinogenicity studies. Put shortly: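 Archive of carcinogenicity, mutagenicity, tumor promotion and tumor inhibition results drawn from journals, NCI reports and other sources, expert-reviewed; covers 1985-2011 and is no longer updated.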

The text below walks through data of PubChem BioAssay AID1259411 (Chemical Carcinogenesis Research Information System (CCRIS), 2018).

The structures appear in SMILES notation. Calls of active or inactive are those of the source. The rule behind the calls is not given here.

Regarding `C=C(Cl)Cl`, the carcinogen call runs as follows: (Species: FISH, Strain/Sex: SHASTA RAINBOW TROUT/MALE, FEMALE, Route: ORAL, Dose: 0, 2000 PPM IN DIET FOR 18 MO (STUDY DURATION: 18 MO)) “inactive; negative”; (Species: MOUSE, Route: INHALATION, Tumor Site: Type of Lesion: KIDNEY, LUNG, LIVER, Tumor Site: Type of Lesion: KIDNEY, LUNG, LIVER) “active; positive”; (Species: RAT, Strain/Sex: SPRAGUE-DAWLEY/FEMALE, Route: GAVAGE, Dose: 0, 0.5, 5, 10, 20 MG/KG BW IN OLIVE OIL 1/D 4-5 D/WK FOR 52-59 WK (STUDY DURATION: LIFETIME), Dose: 0, 0.5, 5, 10, 20 MG/KG BW IN OLIVE OIL 1/D 4-5 D/WK FOR 52-59 WK (STUDY DURATION: LIFETIME), Tumor Site: Type of Lesion: [BRAIN WAS ONLY SITE EVALUATED]) “inactive; negative”; (Species: RAT, Strain/Sex: SPRAGUE-DAWLEY/FEMALE, Route: INHALATION, Dose: 0, 10, 25, 50, 100, 150 PPM IN AIR 4 HR/D 4-5 D/WK FOR 52 WK (STUDY DURATION: LIFETIME), Dose: 0, 10, 25, 50, 100, 150 PPM IN AIR 4 HR/D 4-5 D/WK FOR 52 WK (STUDY DURATION: LIFETIME), Tumor Site: Type of Lesion: [BRAIN WAS ONLY SITE EVALUATED]) “inactive; negative”; (Species: RAT, Strain/Sex: SPRAGUE-DAWLEY/FEMALE, Route: INHALATION, Dose: 0, 100 PPM 4 HR/D 5 D/WK FOR 7 WK THEN 7 HR/D 5 D/WK FOR 8 WK ADMINISTERED TO RAT EMBRYOS BEGINNING ON THE 12TH DAY OF G) “inactive; negative”; (Species: RAT, Strain/Sex: SPRAGUE-DAWLEY/FEMALE, Route: INHALATION, Dose: 0, 100 PPM 4 HR/D 5 D/WK FOR 7 WK THEN 7 HR/D 5 D/WK FOR 97 WK ADMINISTERED TO BREEDER RATS (STUDY DURATION: 104 WK)) “inactive; negative”. For the same compound, the carcinogen call (Species: RAT, Strain/Sex: SPRAGUE-DAWLEY/FEMALE, Route: INHALATION, Dose: 0, 100 PPM 4 HR/D 5 D/WK FOR 7 WK THEN 7 HR/D 5 D/WK FOR 97 WK ADMINISTERED TO RAT EMBRYOS BEGINNING ON 12TH DAY OF GEST, Tumor Site: Type of Lesion: HEMATOPOIETIC SYSTEM: LEUKEMIA) is “active; positive”; the carcinogen call (Species: RAT, Strain/Sex: SPRAGUE-DAWLEY/FEMALE, Route: ORAL, Dose: 0, 50, 100, 200 PPM IN DRINKING WATER FOR 2 YR (STUDY DURATION: 2 YR), Dose: 0, 50, 100, 200 PPM IN DRINKING WATER FOR 2 YR (STUDY DURATION: 2 YR)) was “inactive; negative”; the carcinogen call (Species: RAT, Strain/Sex: SPRAGUE-DAWLEY/MALE, Route: GAVAGE, Dose: 0, 0.5, 5, 10, 20 MG/KG BW IN OLIVE OIL 1/D 4-5 D/WK FOR 52-59 WK (STUDY DURATION: LIFETIME), Dose: 0, 0.5, 5, 10, 20 MG/KG BW IN OLIVE OIL 1/D 4-5 D/WK FOR 52-59 WK (STUDY DURATION: LIFETIME), Tumor Site: Type of Lesion: [BRAIN WAS ONLY SITE EVALUATED]) was “inactive; negative”; the carcinogen call (Species: RAT, Strain/Sex: SPRAGUE-DAWLEY/MALE, Route: INHALATION, Dose: 0, 10, 25, 50, 100, 150 PPM IN AIR 4 HR/D 4-5 D/WK FOR 52 WK (STUDY DURATION: LIFETIME), Dose: 0, 10, 25, 50, 100, 150 PPM IN AIR 4 HR/D 4-5 D/WK FOR 52 WK (STUDY DURATION: LIFETIME), Tumor Site: Type of Lesion: [BRAIN WAS ONLY SITE EVALUATED]) was “inactive; negative”; the carcinogen call (Species: RAT, Strain/Sex: SPRAGUE-DAWLEY/MALE, Route: INHALATION, Dose: 0, 100 PPM 4 HR/D 5 D/WK FOR 7 WK THEN 7 HR/D 5 D/WK FOR 8 WK ADMINISTERED TO RAT EMBRYOS BEGINNING ON THE 12TH DAY OF G) is “inactive; negative”; the carcinogen call (Species: RAT, Strain/Sex: SPRAGUE-DAWLEY/MALE, Route: INHALATION, Dose: 0, 100 PPM 4 HR/D 5 D/WK FOR 7 WK THEN 7 HR/D 5 D/WK FOR 97 WK ADMINISTERED TO RAT EMBRYOS BEGINNING ON 12TH DAY OF GEST) is “inactive; negative”. For the same compound, the carcinogen call was “inactive; negative” (Species: RAT, Strain/Sex: SPRAGUE-DAWLEY/MALE, Route: ORAL, Dose: 0, 50, 100, 200 PPM IN DRINKING WATER FOR 2 YR (STUDY DURATION: 2 YR), Dose: 0, 50, 100, 200 PPM IN DRINKING WATER FOR 2 YR (STUDY DURATION: 2 YR)) and “active; positive” (Species: RAT, Strain/Sex: SPRAGUE-DAWLEY, Route: INHALATION, Tumor Site: Type of Lesion: MAMMARY GLAND: FIBROADENOMA, CARCINOMA).

`CCNC(=O)[C@@H]1CCCN1C(=O)[C@H](CCCN=C(N)N)NC(=O)[C@H](CC(C)C)NC(=O)[C@@H](COC(C)(C)C)NC(=O)[C@H](Cc1ccc(O)cc1)NC(=O)[C@H](CO)NC(=O)[C@H](Cc1c[nH]c2ccccc12)NC(=O)[C@H](Cc1cnc[nH]1)NC(=O)[C@@H]1CCC(=O)N1`: the carcinogen call was “inactive; negative” (Species: RAT, Strain/Sex: WISTAR/FEMALE, Route: SUBCUTANEOUS, Dose: 0, 0.0002, 0.0006, 0.0018 MG/KG 1/D FOR 24 MO (STUDY DURATION: 30 MO), Dose: 0, 0.0002, 0.0006, 0.0018 MG/KG 1/D FOR 24 MO (STUDY DURATION: 30 MO)) and “inactive; negative” (Species: RAT, Strain/Sex: WISTAR/MALE, Route: SUBCUTANEOUS, Dose: 0, 0.0002, 0.0006, 0.0018 MG/KG 1/D FOR 24 MO (STUDY DURATION: 30 MO), Dose: 0, 0.0002, 0.0006, 0.0018 MG/KG 1/D FOR 24 MO (STUDY DURATION: 30 MO)).

For `c1ccc(N=Nc2ccccc2)cc1`, the carcinogen call is “inactive; negative” (Species: MOUSE, Strain/Sex: B6C3F1/FEMALE, Route: ORAL, Dose: 0, 208, 545 PPM IN DIET, TWA, Dose: 0, 208, 545 PPM IN DIET, TWA); “inactive; negative” (Species: MOUSE, Strain/Sex: B6C3F1/MALE, Route: ORAL, Dose: 0, 200, 400 PPM IN DIET, Dose: 0, 200, 400 PPM IN DIET); “active; positive” (Species: RAT, Strain/Sex: F344/FEMALE, Route: ORAL, Dose: 0, 200, 400 PPM IN DIET FOR 106 WK (STUDY DURATION: 106 WK), Dose: 0, 200, 400 PPM IN DIET FOR 106 WK (STUDY DURATION: 106 WK), Tumor Site: Type of Lesion: SPLEEN OR PERITONEUM: SARCOMA); “active; positive” (Species: RAT, Strain/Sex: F344/FEMALE, Route: ORAL, Dose: 0, 200, 400 PPM IN DIET, Dose: 0, 200, 400 PPM IN DIET, Tumor Site: Type of Lesion: SPLEEN: FIBROSARCOMA, OSTEOSARCOMA, PERITONEAL CAVITY: SARCOMA); “active; positive” (Species: RAT, Strain/Sex: F344/MALE, Route: ORAL, Dose: 0, 200, 400 PPM IN DIET FOR 106 WK (STUDY DURATION: 106 WK), Dose: 0, 200, 400 PPM IN DIET FOR 106 WK (STUDY DURATION: 106 WK), Tumor Site: Type of Lesion: SPLEEN OR PERITONEUM: SARCOMA); “active; positive” (Species: RAT, Strain/Sex: F344/MALE, Route: ORAL, Dose: 0, 200, 400 PPM IN DIET, Dose: 0, 200, 400 PPM IN DIET, Tumor Site: Type of Lesion: SPLEEN: FIBROSARCOMA, PERITONEAL CAVITY: SARCOMA).

Turning to `CCS(=O)(=O)c1ccc(S(N)(=O)=O)c2ccccc12`, the carcinogen call was “active; positive” (Species: MOUSE, Strain/Sex: A X 1F/FEMALE, Route: ORAL, Dose: 0, 0.01% IN POWDERED OXOID DIET (STUDY DURATION: 333-701 D), Tumor Site: Type of Lesion: BLADDER: CARCINOMA, LUNG: ADENOMA) and “active; positive” (Species: MOUSE, Strain/Sex: A X 1F/FEMALE, Route: ORAL, Dose: 0, 0.01% IN POWDERED OXOID DIET PRECEDED BY IRRADIATION OF 1000 RAD WITH UPPER BODY SHIELDED 48H PRIOR TO DOSING (STUDY, Tumor Site: Type of Lesion: BLADDER: CARCINOMA, LUNG: ADENOMA).
